Assay results as given in US9834514B2, “Antibiotic sensitivity-restoring and photosensitive agents” (New Mexico Tech Research Foundation, priority 2015, dated 2017).
Converted amounts (≈) assume the structure as drawn.

Assays:
[1] = system: Klebsiella pneumoniae (CRE, ATCC BAA-1705); assay: MIC against CRE; format: cell-based; conditions: Klebsiella pneumoniae, ATCCBAA1705
Procedure: TABLE 27 details the individual MIC values of compounds 1, 7, 8, 9, 10, 11, PMB, PME, and light against CRE.
The MICs of PME and compounds 8-11 were determined against Klebsiella pneumoniae (CRE, ATCC BAA-1705). […] After the incubation with PME, the compounds were added at a concentration of 20 μM, and the samples were further incubated. At specific time points, the samples were taken and diluted ten-fold in media. Ten microliters of each dilution was then drip-streaked onto an agar plate and incubated overnight at 37° C. Colony counts were then performed and the CFU/mL were calculated.

P. aeruginosa = assay: Resensitization to antibiotics (log reduction, TABLE 29); format: cell-based; conditions: compound 20 μM
HeLa cells = assay: Toxicity (IC50) on HeLa cells; format: cell-based, human; conditions: Homo sapiens; cancerous cervical epithelium HeLa cells
Procedure: The toxicities of the compounds of the invention were determined for human cancerous cervical epithelium HeLa and normal lung fibroblast WI38 cells. The toxicities of EPIs INF-55 and INF-55Cl were quantified as controls. […] TABLE 2 compares the toxicity of compounds 7-11 on HeLa cells and normal WI38 cells.

S. aureus (ATCC 29213) = assay: MIC against drug sensitive S. aureus; format: cell-based; conditions: Staphylococcus aureus, ATCC29213; ATCC 29213; read-out: S. aureus MIC
VRE = assay: Resensitization to antibiotics (log reduction, TABLE 29); format: cell-based, Enterococcus faecalis; conditions: compound 1 μM; Light (2 min)
MRSA (ATCC BAA-44) = assay: Synergy with oxacillin and norfloxacin and other antibiotics (colony counts); format: cell-based, S. aureus
Procedure: The synergy of compounds 1 and 7-11 with oxacillin and norfloxacin was tested against MRSA (ATCC BAA-44). An overnight culture of MRSA was first diluted to about 5×10^5 CFU/mL in TSB. Then, 1 mL of the diluted broth suspension was added to a borosilicate glass culture tube. An appropriate volume of a compound or an antibiotic drug stock was added to the broth suspension and mixed using a vortex mixer. Then an appropriate volume of an antibiotic was added to test synergy with compounds 7-11. The samples were subsequently mixed using a vortex mixer, and the samples were incubated for 18 hours at 37° C. on a rotary shaking incubator. After 18 hours, the test cultures were diluted ten-fold, 10 μL of each dilution was drip-streaked onto a TSA plate, and the samples were incubated for 18 hours at 37° C. Colony counts were then performed and the CFU/mL values were calculated.
TABLE 21 details the MIC values identified in the MRSA assay of compounds 1, 7, 8, 9, 10, 11, various antibiotics, and light.

MRSA = assay: Resensitization to antibiotics (log reduction, TABLE 29); format: cell-based, S. aureus
Procedure: In a 96-well microtiter plate, two-fold dilutions were made of each drug (starting with 100 μM) in 100 μL of a cell suspension in TSB. The resulting samples were incubated overnight at 37° C. on a rotary shaking incubator at 100 rpm. The samples were then visually inspected for turbidity. A 20% well volume of MTT reagent (5 mg/mL) was subsequently added, and the samples were incubated for about 20 minutes.

drug-resistant bacteria = assay: Summary of synergistic activities with antibiotic families (TABLE 45); format: cell-based; conditions: MRSA ATCC BAA-44
Excerpt: TABLE 45 summarizes the synergistic activities of the seven classes of clinically used antibiotics and compounds of the invention against a variety of different drug-resistant bacteria.

[2] = system: Klebsiella pneumoniae (CRE, ATCC BAA-1705); assay: Cell killing of CRE with compounds in presence or absence of PMB (CFU/mL); format: cell-based
Procedure: Klebsiella pneumoniae (CRE, ATCC BAA-1705) was grown in TSB overnight at 37° C. and diluted to about 5×10^5 CFU/mL using a McFarland Latex Turbidity standard (0.5). One mL of the cell suspension was transferred to a glass culture test tube. PMB was added to the cell suspension resulting in a final concentration of 200 μg/mL of PMB. The cell suspension was incubated at 37° C. on a rotary shaking incubator at 150 rpm for 4 hours. Compounds 1, 7, 8, 9, 10, and 11 were added to the cell suspension, resulting in a concentration of 20 μM for each of the compounds. The cell suspensions containing the compounds were incubated at 37° C. on a rotary shaking incubator at 150 rpm for 4 hours. Each sample was diluted tenfold to a 10^−5 dilution. Ten 10 microliters of each dilution from each sample was dripped onto a TSA plate and allowed to streak down the plate. The agar plates were incubated at 37° C. for 18-24 hours. Colony counts were performed and CFU/mL values were calculated.
The MICs of PMB and compounds 7-11 were determined against Klebsiella pneumoniae (CRE, ATCC BAA-1705). […] After the incubation with PMB, each of the compounds was added at a concentration of 20 μM, and the samples were incubated for an additional 18 hours. A sample was taken and diluted ten-fold in media. Ten microliters of each dilution was then drip-streaked onto an agar plate and incubated overnight at 37° C. Colony counts were then performed and the concentrations of cells (CFU/mL) were calculated.

[3] = (1/40) MIC compound + (1/30) MIC Tetracycline
[4] = (1/40) MIC compound + (1/31) MIC Dicloxicillin
[5] = (1/40) MIC compound + (1/50) MIC Dicloxicillin
[6] = (1/40) MIC compound + (1/50) MIC Norfloxacin
[7] = (1/40) MIC compound + (1/50) MIC Tobramycin
[8] = (1/40) MIC compound + (¼) MIC Oxacillin
[9] = (1/40) MIC compound + (⅙) MIC Vancomycin
[10] = compared to compound alone, FIGS. 34, 39, 41
[11] = increase in ability to kill MRSA versus drug or compound alone

Clc1ccc(/C=C/c2[nH]c3ccccc3c2/C=C/c2ccc(Cl)cc2)cc1 [Compound 1]
MIC [1]: > 100 µM
Log Reduction (P. aeruginosa; PME (0.1 μg/mL)): 2
Log Reduction (P. aeruginosa; PME (0.1 μg/mL) + Light (2 min)): 8
IC50 (HeLa cells): 68.9 ± 4.8 µM
MIC (S. aureus (ATCC 29213)): 100 µM (≈ 39 µg/mL)
Log Reduction (VRE): 8-9
% Kill (MRSA (ATCC BAA-44); [3]): 99.99%
Surviving MRSA (MRSA (ATCC BAA-44); [3]): 1.00 × 10^−5
% Kill (MRSA (ATCC BAA-44); [4]): 99.99%
Surviving MRSA (MRSA (ATCC BAA-44); [4]): 1.00 × 10^−4
% Kill (MRSA (ATCC BAA-44); [5]): 99.99%
Surviving MRSA (MRSA (ATCC BAA-44); [5]): 1.00 × 10^−8
% Kill (MRSA (ATCC BAA-44); [6]): 99.99%
Surviving MRSA (MRSA (ATCC BAA-44); [6]): 1.00 × 10^−9
% Kill (MRSA (ATCC BAA-44); [7]): 99.99%
Surviving MRSA (MRSA (ATCC BAA-44); [7]): 1.00 × 10^−9
% Kill (MRSA (ATCC BAA-44); [8]): 99.99%
Surviving MRSA (MRSA (ATCC BAA-44); [8]): 1.00 × 10^−7
% Kill (MRSA (ATCC BAA-44); [9]): 99.99%
Surviving MRSA (MRSA (ATCC BAA-44); [9]): 1.00 × 10^−9
% Kill (MRSA (ATCC BAA-44); (1/40) MIC compound + Light): 99.99%
Surviving MRSA (MRSA (ATCC BAA-44); (1/40) MIC compound + Light): 1.00 × 10^−8
Synergy with Norfloxacin (MRSA (ATCC BAA-44); TABLE 6): 5-log reduction
Synergy with Oxacillin (MRSA (ATCC BAA-44); TABLE 6): 5-log reduction
log reduction in the number of surviving cells (CFU/mL), co-treatment with norfloxacin (MRSA (ATCC BAA-44); [10]): ~5 log
log reduction in the number of surviving cells (CFU/mL), co-treatment with oxacillin (MRSA (ATCC BAA-44); [10]): ~5 log
Orders of Magnitude with Norfloxacin (MRSA (ATCC BAA-44); [11]): 9
Orders of Magnitude with Oxacillin (MRSA (ATCC BAA-44); [11]): >7
Log Reduction (MRSA; compound 1 μM, MRSA ATCC BAA-1717, Light (2 min)): 6
Log Reduction (MRSA; compound 10 μM, Norfloxacin (20 μg/mL)): 9
Log Reduction (MRSA; compound 10 μM, Oxacillin (100 μg/mL)): 7-8
Log Reduction (MRSA; compound 10 μM, Tetracycline (0.1 μg/mL)): 5-6
Log Reduction (MRSA; compound 10 μM, Tobramycin (100 μg/mL)): 9
Synergy with Erythromycin (Macrolides) (drug-resistant bacteria): Synergy (1)
Synergy with Tetracycline (Tetracyclines) (drug-resistant bacteria; †includes doxycycline): Synergy† (1)
PMB + Comp ([2]; PMB @ 0.2 μg/mL + Comp @ 20 µM): 8.2 × 10^3 CFU/mL
Comp @ 20 µM ([2]; compound alone): 6.4 × 10^8 CFU/mL
